From the supplement of paper PMC10307832

Legend:
Assay in all cases: relative viability (nuclei count vs DMSO), 5 days (fraction); higher = more cells survive
SGI-1776 + Tozasertib = compound: CN1CCC(CNc2ccc3ncc(-c4cccc(OC(F)(F)F)c4)n3n2)CC1 [SGI-1776] + Cc1cc(Nc2cc(N3CCN(C)CC3)nc(Sc3ccc(NC(=O)C4CC4)cc3)n2)n[nH]1 [Tozasertib] (partner 0.1 µM)
In short: (§1)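 Each reported value is a median over duplicate plates. It expresses relative viability: treated-well nuclei count divided by vehicle-well nuclei count. Lung cancer cell lines in 1536-well plates were dosed by pin tool a day after seeding, alone with one drug or with a fixed anchor-drug dose plus five library-drug doses (not always all listed) in √10 steps, and nuclei were counted after 5 days.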

Entinostat + Navitoclax = compound: Nc1ccccc1NC(=O)c1ccc(CNC(=O)OCc2cccnc2)cc1 [Entinostat] + CC1(C)CCC(c2ccc(Cl)cc2)=C(CN2CCN(c3ccc(C(=O)NS(=O)(=O)c4ccc(N[C@H](CCN5CCOCC5)CSc5ccccc5)c(S(=O)(=O)C(F)(F)F)c4)cc3)CC2)C1 [Navitoclax] (partner 0.5 µM)
In short: as §1

Entinostat + Pemetrexed = compound: Nc1ccccc1NC(=O)c1ccc(CNC(=O)OCc2cccnc2)cc1 [Entinostat] + Nc1nc2[nH]cc(CCc3ccc(C(=O)N[C@@H](CCC(=O)O)C(=O)O)cc3)c2c(=O)[nH]1 [Pemetrexed] (partner 0.2 µM)
In short: as §1

SGI-1776 + Bortezomib = compound: CN1CCC(CNc2ccc3ncc(-c4cccc(OC(F)(F)F)c4)n3n2)CC1 [SGI-1776] + CC(C)C[C@H](NC(=O)[C@H](Cc1ccccc1)NC(=O)c1cnccn1)B(O)O [Bortezomib] (partner 0.002 µM)
In short: as §1

| Cell Line | relative viability (SGI-1776 + Tozasertib; first compound 0.08 µM) | relative viability (SGI-1776 + Tozasertib; first compound 0.8 µM) | relative viability (SGI-1776 + Tozasertib; first compound 2.53 µM) | relative viability (SGI-1776 + Tozasertib; first compound 8 µM) | relative viability (Entinostat + Navitoclax; first compound 0.02 µM) | relative viability (Entinostat + Navitoclax; first compound 0.06325 µM) | relative viability (Entinostat + Navitoclax; first compound 0.2 µM) | relative viability (Entinostat + Navitoclax; first compound 0.6325 µM) | relative viability (Entinostat + Navitoclax; first compound 2 µM) | relative viability (Entinostat + Pemetrexed; first compound 0.02 µM) | relative viability (Entinostat + Pemetrexed; first compound 0.06325 µM) | relative viability (Entinostat + Pemetrexed; first compound 0.2 µM) | relative viability (Entinostat + Pemetrexed; first compound 0.6325 µM) | relative viability (Entinostat + Pemetrexed; first compound 2 µM) | relative viability (SGI-1776 + Bortezomib; first compound 0.08 µM) | relative viability (SGI-1776 + Bortezomib; first compound 0.8 µM) | relative viability (SGI-1776 + Bortezomib; first compound 2.53 µM) | relative viability (SGI-1776 + Bortezomib; first compound 8 µM) |
| --- | --- | --- | --- | --- | --- | --- | --- | --- | --- | --- | --- | --- | --- | --- | --- | --- | --- | --- |
| NCI-H2170 | 0.708 | 0.692 | 0.452 | 0.181 | 0.626 | 0.553 | 0.502 | 0.33 | 0.196 | 0.255 | 0.283 | 0.273 | 0.228 | 0.229 |  |  |  |  |
| HCC-366 | 0.115 | 0.0741 | 0.0957 | 0.0418 | 1.06 | 0.946 | 0.905 | 0.529 | 0.138 | 0.185 | 0.141 | 0.159 | 0.0978 | 0.0735 | 0.919 | 1.11 | 0.98 | 1.12 |
| NCI-H2405 | 0.711 | 0.484 | 0.353 | 0.314 | 1 | 1.13 | 1.15 | 0.814 | 0.655 | 1.06 | 1.22 | 1.02 | 0.978 | 0.667 | 1.04 | 0.997 | 0.896 | 0.924 |
| COR-L 105 | 0.334 | 0.286 | 0.352 | 0.318 | 0.771 | 0.911 | 0.738 | 0.407 | 0.333 | 1.12 | 1.23 | 1.12 | 0.816 | 0.56 | 0.929 | 0.833 | 0.587 | 0.282 |
| 201T | 0.982 | 0.901 | 0.549 | 0.366 | 1.2 | 1.16 | 1.1 | 0.959 | 0.779 | 0.37 | 0.33 | 0.379 | 0.287 | 0.279 | 1.09 | 1.08 | 1.11 | 0.986 |
| NCI-H2228 | 0.253 | 0.145 | 0.117 | 0.148 | 1.03 | 0.758 | 0.52 | 0.365 | 0.349 | 0.316 | 0.399 | 0.323 | 0.271 | 0.172 | 1.05 | 0.917 | 0.992 | 0.531 |
| LCLC-103H | 0.495 | 0.506 | 0.424 | 0.211 |  |  |  |  |  | 0.472 | 0.463 | 0.443 | 0.454 | 0.426 | 1.06 | 1.05 | 1.01 | 0.859 |
| NCI-H2087 | 0.257 | 0.198 | 0.186 | 0.192 | 0.785 | 0.853 | 0.724 | 0.586 | 0.337 | 0.68 | 0.581 | 0.67 | 0.613 | 0.304 | 0.772 | 0.802 | 0.982 | 0.722 |
| NCI-H358 | 0.0986 | 0.0957 | 0.102 | 0.0836 |  |  |  |  |  | 0.163 | 0.168 | 0.158 | 0.128 | 0.135 |  |  |  |  |
| H3255 | 0.574 | 0.825 | 0.625 | 0.277 | 0.536 | 0.453 | 0.309 | 0.174 | 0.121 | 0.586 | 0.57 | 0.549 | 0.414 | 0.378 | 0.963 | 0.75 | 0.606 | 0.33 |
| NCI-H23 | 0.367 | 0.295 | 0.282 | 0.205 | 0.727 | 0.88 | 0.873 | 0.668 | 0.433 | 0.76 | 0.892 | 0.728 | 0.685 | 0.319 | 0.997 | 1.09 | 1.07 | 0.991 |
| CAL-12T | 0.3 | 0.216 | 0.234 | 0.205 | 1.22 | 1.17 | 1.41 | 1.22 | 1.08 | 1.17 | 1.09 | 1.49 | 1.21 | 0.676 | 1.35 | 0.982 | 0.918 | 0.867 |
| A-427 | 0.19 | 0.212 | 0.141 | 0.158 | 1.05 | 1.01 | 0.958 | 0.715 | 0.669 | 1.03 | 0.971 | 0.922 | 0.904 | 0.765 | 1.04 | 1.03 | 0.931 | 0.749 |
| HARA | 0.18 | 0.101 | 0.0992 | 0.0856 | 1.18 | 1.14 | 1.12 | 1.09 | 0.935 | 0.233 | 0.22 | 0.31 | 0.257 | 0.247 | 1.2 | 1.21 | 1.01 | 1.05 |
| NCI-H1793 | 0.335 | 0.248 | 0.252 | 0.22 | 0.405 | 0.599 | 0.405 | 0.374 | 0.218 | 0.984 | 1.08 | 1.08 | 0.572 | 0.316 |  |  |  |  |
| NCI-H1623 | 0.436 | 0.425 | 0.39 | 0.45 |  |  |  |  |  |  |  |  |  |  |  |  |  |  |
| NCI-H2023 | 0.325 | 0.224 | 0.165 | 0.148 | 0.916 | 0.692 | 0.496 | 0.163 | 0.138 | 0.199 | 0.192 | 0.152 | 0.127 | 0.0994 | 1.13 | 1.07 | 0.988 | 0.727 |
| ABC-1 | 0.175 | 0.134 | 0.173 | 0.175 |  |  |  |  |  |  |  |  |  |  | 0.299 | 0.323 | 0.364 | 0.241 |
| LC-2-ad | 0.451 | 0.309 | 0.336 | 0.261 | 0.387 | 0.289 | 0.264 | 0.17 | 0.134 | 0.286 | 0.276 | 0.28 | 0.302 | 0.33 | 1.06 | 0.976 | 1.03 | 0.987 |
| NCI-H441 | 0.604 | 0.437 | 0.216 | 0.297 | 0.689 | 0.505 | 0.632 | 0.233 | 0.0467 | 0.287 | 0.29 | 0.255 | 0.227 | 0.166 | 0.376 | 0.443 | 0.529 | 0.332 |
